Ends that are not written are not given here. Peptide text beside a SMILES is read from it. * marks the point of attachment. For = O=C*
What was measured:
FPR = molecular target: T1, FPR (Homo sapiens, UniProt P21462); settings: compared with FMLP; cited from earlier work
T1 sequence (P21462 1-350): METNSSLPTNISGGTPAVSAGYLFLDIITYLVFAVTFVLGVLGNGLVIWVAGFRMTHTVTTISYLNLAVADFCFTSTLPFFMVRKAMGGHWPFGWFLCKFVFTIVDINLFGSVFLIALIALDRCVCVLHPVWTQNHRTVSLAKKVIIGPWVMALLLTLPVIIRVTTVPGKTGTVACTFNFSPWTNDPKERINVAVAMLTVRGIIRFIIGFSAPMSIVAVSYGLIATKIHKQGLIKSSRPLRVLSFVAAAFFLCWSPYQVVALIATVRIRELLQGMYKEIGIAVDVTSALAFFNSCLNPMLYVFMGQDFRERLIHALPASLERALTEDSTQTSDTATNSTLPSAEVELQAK

[1] = test system: normal human peripheral blood mononuclear cells; experiment: Effects of HK-X on cultures of human peripheral blood mononuclear cells with and without Con A (cell cycle, viability, apoptosis); type: cell-based; settings: versus vehicle
Procedure: The effects of addition of HK-X (as compared to a control of vehicle without peptide) to cultures of normal human peripheral blood mononuclear cells with and without the plant lectin, Con A, were also evaluated. […] However, HK-X induced apoptosis in a significant population of cells (˜30%) stimulated with Con A as determined by the presence of a sub G0/G1 population in the DNA profile. In cultures where the cells were not stimulated to enter the cell cycle (without Con A), the levels of sub G0/G1 were similar in HK-X treated and control cultures (<7%).

[2] = mouse, in vivo
inflamed lung = settings: mouse, in vivo
Procedure: In this model HK-X was administered intranasally for up to 3 months.

[3] = HK-X administration to normal mice
[4] = test system: rat peritoneal mast cells; experiment: Binding of FITC-HK-X to rat peritoneal mast cells; settings: freshly isolated mast cells, FIG. 3
Procedure: Rat peritoneal mast cells were isolated by infusion of 35 ml of Tyrode's Solution into the peritoneal cavity of anesthetized rats. The rats were then sacrificed by injection of an overdose of anesthetic. The peritoneal cells were harvested, placed into 15 ml centrifuge tubes. The cells were pelleted by centrifugation at 250×g for 10 min at room temperature.
Other cell types were also tested for the ability to bind FITC labeled HK-X on their cell surface.

Met-Met-Trp-Leu-Leu (MMWLL; printed: Met-Met-Trp-Leu-Leu)
neutrophil function activity (FPR): comparable in neutrophil function activity to FMLP

CSCC[C@H](NC=O)C(=O)N[C@@H](CC(C)C)C(=O)N[C@@H](Cc1ccccc1)C(=O)N[C@@H](Cc1ccccc1)C(=O)O [HK-X, f-Met-Leu-Phe-Phe] (For-MLFF-OH)
cell viability [1]: did not effect cell viability | toxicity [2]: no discernable toxicity | pathological changes in the alveoli, bronchi or vessels (inflamed lung): no pathological changes | distribution or numbers of nucleated cells of the peripheral blood ([3]; 10 μg to 1000 μg per adult mouse): no alterations | numbers of antibody forming cells (PFC), IgM and IgG ([3]; mice immunized with sheep red cells, HK-X prior to and after immunization): no alteration | Liver and kidney function ([3]; normal mice): unaffected | production of required cytokines ([3]; normal mice): did not down regulate | proliferation and differentiation of hematopoietic precursors of neutrophils, basophils, monocytes and lymphocytes ([3]; normal mice): did not negatively affect

FITC-HK-X: fluoresceinated HK-X (f-Met-Leu-Phe-Phe) (MLFF; not fully specified; also: FITC label, site not given here)
numbers of FITC-HK-X bound [4]: roughly equivalent to that of human eosinophils

From patent US20030050249A1, “Complexes of alpha-6 integrin subunits with small peptides and methods for treating indications resulting from modulation of integrin-mediated responses by altering signal transduction” (priority 2000, published 2003)
